# In article PMC3933693, “Novel Inhibitors of Mitochondrial sn-Glycerol 3-phosphate Dehydrogenase” (PLoS ONE, 2014):
# Columns and labels:
# [1] = tested on: skeletal muscle mitochondria; test: Mitochondrial membrane potential (ΔΨm, TMRM) powered by glutamate plus malate; assay type: biochemical, rat; settings: primary screen, ∼2.5 µM, average of duplicates; glutamate and malate
# Experimental: Mitochondrial membrane potential (ΔΨm) was estimated fluorimetrically as described previously [33] on the Varian fluorimeter, except the potentiometric dye TMRM was used in quench-mode in place of safranine O [34]. […] The effect of putative small-molecule inhibitors was normalized as the % change in fluorescence between vehicle treatment and complete depolarization by the uncoupler carbonyl cyanide-4-(trifluoromethoxy)phenylhydrazone (FCCP, 2 µM) added at the end of each run. When indicated, the K^+/H^+ exchanger nigericin (80 ng ⋅ ml^−1) was added to collapse the pH gradient across the mitochondrial inner membrane (ΔpH) and maximize ΔΨm.
# All assays were performed with stirring at 37°C.
# Additionally, four microplate assays for ΔΨm were run in parallel to the H2O2 assays. These assays were as described under “Measurement of mitochondrial H2O2 production and membrane potential” except that each substrate condition was assayed in a separate microplate. […] Plates were incubated in the dark at room temperature for 30–40 min (H2O2) or 10–15 min (ΔΨm) after the addition of substrate, and endpoint fluorescence was measured on the Victor plate reader. […] Endpoints for the ΔΨm assays were determined in pilot experiments as the times for TMRM accumulation to reach a steady state. At room temperature, this was typically ∼ 5 min and remained stable for at least 30 min. Endpoint fluorescence values were normalized as described in the previous section with wells containing FCCP serving as positive controls for the ΔΨm assays.
# [2] = tested on: ubiquinone-binding site of complex I (site IQ); test: Site-specific H2O2 production from site IQ in skeletal muscle mitochondria; assay type: biochemical, rat; settings: primary screen, ∼2.5 µM, average of duplicates; 5 mM succinate;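 further: H2O2 from superoxide detected by Amplex UltraRed fluorescence with added superoxide dismutase and horseradish peroxidase, endpoint read 30–40 min after substrate addition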
# Experimental: Superoxide was measured as H2O2 after dismutation by endogenous or exogenous superoxide dismutase. Rates of total superoxide/H2O2 production were measured fluorimetrically using Amplex UltraRed in the presence of exogenous superoxide dismutase and horseradish peroxidase in a Varian Cary Eclipse fluorimeter as previously described [27]. Rates of production from specific sites were determined as previously described using the following eight conditions: flavin mononucleotide site of complex I (site IF) plus matrix NAD-linked dehydrogenases (collectively "site IF/DH") with 5 mM glutamate, 5 mM malate, and 4 µM rotenone [28]; ubiquinone-binding site of complex I (site IQ) with either 0.5 or 5 mM succinate [29]; flavin site of complex II (site IIF) with either 15 µM palmitoylcarnitine, 2.5 µM antimycin A, and 2 µM myxothiazol or 0.5 mM succinate, 4 µM rotenone, 2.5 µM antimycin A, and 2 µM myxothiazol [30], [31]; mGPDH with 1.7 mM glycerol phosphate, 4 µM rotenone, 2.5 µM antimycin A, 2 µM myxothiazol, 1 mM malonate, and 250 nM free calcium; outer ubiquinone-binding site of complex III (site IIIQo) with either 0.5 or 5 mM succinate, 4 µM rotenone and 2.5 µM antimycin A [32]. Candidate small-molecule inhibitors were added prior to the start of measurements and H2O2 calibration curves were performed in the presence of tested compounds.
# 3,200 compounds were tested initially at 2.5 µM (0.025% DMSO final) in duplicate on different plates against a panel of five distinct assays of site-specific superoxide/H2O2 production as described in the previous section with minor changes. […] Endpoint fluorescence was measured on a Perkin Elmer Victor V3 fluorescent plate reader. The fluorescence intensity of each well was normalized as % change from the average of eight DMSO controls on the same plate. Duplicate wells of each of four modulators of mitochondrial metabolism known to inhibit specific sites of superoxide/H2O2 production were included on each plate as positive controls and the resulting fluorescence levels set as −100% change from DMSO controls. Known inhibitors included 20 mM aspartate (for site IF/DH), 1 µM FCCP (for site IQ), 10 mM malonate (for site IIF), and 2 µM myxothiazol (for site IIIQo). The background fluorescence of the FCCP wells in the site IQ assay was used to normalize mGPDH plates run in parallel. To minimize position-dependent effects across each assay plate, Tukey’s two-way median polish was applied to fluorescence values after initial normalization [35], [36]. Tukey’s polish is an iterative subtraction of the median row and column values from each well’s given row or column. The procedure is repeated until sequential medians for each row and column are zero and positional gradients in fluorescence are eliminated.
# These 20 compounds were tested in duplicate at 0.08–80 µM (0.1% DMSO final) in microplate format for effects on site-specific H2O2 production as described above. […] Plates were incubated in the dark at room temperature for 30–40 min (H2O2) or 10–15 min (ΔΨm) after the addition of substrate, and endpoint fluorescence was measured on the Victor plate reader. Endpoints were chosen for the H2O2 assays to provide good signal-to-noise ratios and linear rates of change without the indicator dye limiting the reaction.
# [3] = biological target: T1, flavin site of complex II (site IIF) (Rattus norvegicus, UniProt Q920L2); test: Site-specific H2O2 production from site IIF in skeletal muscle mitochondria; assay type: biochemical; settings: primary screen, ∼2.5 µM, average of duplicates; palmitoylcarnitine
# T1 construct: from tissue; host or cells: skeletal muscle mitochondria
# Experimental: (§1) Superoxide was measured as H2O2 after dismutation by endogenous or exogenous superoxide dismutase. Rates of total superoxide/H2O2 production were measured fluorimetrically using Amplex UltraRed in the presence of exogenous superoxide dismutase and horseradish peroxidase in a Varian Cary Eclipse fluorimeter as previously described. Rates of production from specific sites were determined as previously described using the following eight conditions: flavin mononucleotide site of complex I (site IF) plus matrix NAD-linked dehydrogenases (collectively "site IF/DH") with 5 mM glutamate, 5 mM malate, and 4 µM rotenone; ubiquinone-binding site of complex I (site IQ) with either 0.5 or 5 mM succinate; flavin site of complex II (site IIF) with either 15 µM palmitoylcarnitine, 2.5 µM antimycin A, and 2 µM myxothiazol or 0.5 mM succinate, 4 µM rotenone, 2.5 µM antimycin A, and 2 µM myxothiazol, [31]; mGPDH with 1.7 mM glycerol phosphate, 4 µM rotenone, 2.5 µM antimycin A, 2 µM myxothiazol, 1 mM malonate, and 250 nM free calcium; outer ubiquinone-binding site of complex III (site IIIQo) with either 0.5 or 5 mM succinate, 4 µM rotenone and 2.5 µM antimycin A [32]. Candidate small-molecule inhibitors were added prior to the start of measurements and H2O2 calibration curves were performed in the presence of tested compounds.
# (§2) 3,200 compounds were tested initially at 2.5 µM (0.025% DMSO final) in duplicate on different plates against a panel of five distinct assays of site-specific superoxide/H2O2 production as described in the previous section with minor changes. […] Endpoint fluorescence was measured on a Perkin Elmer Victor V3 fluorescent plate reader. The fluorescence intensity of each well was normalized as % change from the average of eight DMSO controls on the same plate. Duplicate wells of each of four modulators of mitochondrial metabolism known to inhibit specific sites of superoxide/H2O2 production were included on each plate as positive controls and the resulting fluorescence levels set as −100% change from DMSO controls. Known inhibitors included 20 mM aspartate (for site IF/DH), 1 µM FCCP (for site IQ), 10 mM malonate (for site IIF), and 2 µM myxothiazol (for site IIIQo). The background fluorescence of the FCCP wells in the site IQ assay was used to normalize mGPDH plates run in parallel. To minimize position-dependent effects across each assay plate, Tukey’s two-way median polish was applied to fluorescence values after initial normalization, [36]. Tukey’s polish is an iterative subtraction of the median row and column values from each well’s given row or column. The procedure is repeated until sequential medians for each row and column are zero and positional gradients in fluorescence are eliminated.
# [4] = tested on: flavin mononucleotide site of complex I (site IF) plus matrix NAD-linked dehydrogenases (site IF/DH); test: Site-specific H2O2 production from site IF/DH in skeletal muscle mitochondria; assay type: biochemical, rat; settings: primary screen, ∼2.5 µM, average of duplicates
# Experimental: as §1, §2
# mGPDH = biological target: T2, mGPDH (Rattus norvegicus, UniProt P35571); test: Superoxide/H2O2 production by mGPDH in isolated skeletal muscle mitochondria (Amplex UltraRed); assay type: biochemical; settings: primary screen, ∼2.5 µM, average of duplicates; 16.7 mM glycerol phosphate, no added calcium
# T2 construct: Activity of mGPDH in frozen-thawed skeletal muscle mitochondria was measured; from tissue; host or cells: skeletal muscle mitochondria
# T2 sequence (P35571 43-727): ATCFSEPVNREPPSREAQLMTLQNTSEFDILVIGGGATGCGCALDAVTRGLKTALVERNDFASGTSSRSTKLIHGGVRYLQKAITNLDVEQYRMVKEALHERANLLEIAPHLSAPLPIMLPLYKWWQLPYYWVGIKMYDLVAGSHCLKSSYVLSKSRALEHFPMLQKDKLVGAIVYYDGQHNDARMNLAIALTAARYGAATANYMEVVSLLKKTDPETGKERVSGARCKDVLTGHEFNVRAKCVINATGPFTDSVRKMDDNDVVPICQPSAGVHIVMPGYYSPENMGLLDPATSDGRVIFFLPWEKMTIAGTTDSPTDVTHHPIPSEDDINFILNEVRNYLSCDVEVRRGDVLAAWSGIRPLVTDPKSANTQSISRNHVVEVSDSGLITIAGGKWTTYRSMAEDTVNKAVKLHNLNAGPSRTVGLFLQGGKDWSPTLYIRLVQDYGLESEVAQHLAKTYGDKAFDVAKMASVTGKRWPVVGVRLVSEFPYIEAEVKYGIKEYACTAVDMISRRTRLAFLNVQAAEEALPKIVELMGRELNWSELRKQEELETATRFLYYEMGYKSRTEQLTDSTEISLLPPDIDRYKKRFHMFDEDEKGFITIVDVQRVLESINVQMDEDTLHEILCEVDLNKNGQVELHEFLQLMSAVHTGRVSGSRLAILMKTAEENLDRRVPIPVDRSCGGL
# [5] = biological target: T3, outer ubiquinone-binding site of complex III (site IIIQo) (Rattus norvegicus, UniProt P00159+P20788); test: Site-specific H2O2 production from site IIIQo in skeletal muscle mitochondria; assay type: biochemical; settings: primary screen, ∼2.5 µM, average of duplicates; 5 mM succinate
# T3 construct: from tissue; host or cells: skeletal muscle mitochondria
# Experimental: as §1, §2
# T1 sequence (Q920L2 35-656): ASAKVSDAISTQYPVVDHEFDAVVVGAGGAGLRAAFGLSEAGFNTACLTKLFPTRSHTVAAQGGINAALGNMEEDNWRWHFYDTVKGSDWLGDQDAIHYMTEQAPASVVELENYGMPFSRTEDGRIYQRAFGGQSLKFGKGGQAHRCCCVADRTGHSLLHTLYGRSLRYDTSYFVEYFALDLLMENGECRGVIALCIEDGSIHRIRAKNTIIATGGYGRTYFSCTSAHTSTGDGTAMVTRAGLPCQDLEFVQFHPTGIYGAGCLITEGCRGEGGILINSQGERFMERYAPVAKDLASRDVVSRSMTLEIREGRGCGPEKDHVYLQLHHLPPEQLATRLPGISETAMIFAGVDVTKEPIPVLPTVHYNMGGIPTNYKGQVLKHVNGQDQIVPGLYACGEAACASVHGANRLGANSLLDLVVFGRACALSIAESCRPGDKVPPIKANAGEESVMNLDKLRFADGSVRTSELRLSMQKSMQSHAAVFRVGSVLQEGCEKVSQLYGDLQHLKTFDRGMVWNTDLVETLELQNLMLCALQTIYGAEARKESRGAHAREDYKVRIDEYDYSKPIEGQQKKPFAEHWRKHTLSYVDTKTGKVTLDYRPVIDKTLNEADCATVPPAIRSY
# T1 sequence (P21913 31-282 partner): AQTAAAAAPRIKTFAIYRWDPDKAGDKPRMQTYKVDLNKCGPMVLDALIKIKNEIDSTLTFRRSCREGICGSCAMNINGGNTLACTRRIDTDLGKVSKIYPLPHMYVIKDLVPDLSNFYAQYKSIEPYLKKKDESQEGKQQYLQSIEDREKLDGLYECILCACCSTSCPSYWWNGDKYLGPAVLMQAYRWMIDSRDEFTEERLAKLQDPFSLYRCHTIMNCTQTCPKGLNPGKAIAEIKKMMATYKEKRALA
# T1 sequence (Q641Z9 30-169 partner limits assumed): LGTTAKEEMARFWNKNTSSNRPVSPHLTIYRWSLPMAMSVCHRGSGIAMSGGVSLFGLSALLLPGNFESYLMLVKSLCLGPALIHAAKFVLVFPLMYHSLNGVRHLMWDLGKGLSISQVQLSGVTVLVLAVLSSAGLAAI
# T1 sequence (Q6PCT8 57-159 partner): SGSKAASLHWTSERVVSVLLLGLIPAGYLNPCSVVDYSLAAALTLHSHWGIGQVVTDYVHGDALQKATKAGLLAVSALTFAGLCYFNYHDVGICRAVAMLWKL
SMILES,ΔΨm (% change from DMSO) [1],IQ (% change from DMSO) [2],IIF (% change from DMSO) [3],IF/DH (% change from DMSO) [4],mGPDH (% change from DMSO) (mGPDH),IIIQo (% change from DMSO) [5]
O=C(O)CSc1cccc(C(=O)Nc2ccc(Br)cc2)c1 [compound 5210767],-0.00715%,-0.0908%,1.3%,-0.5%,-14.1%,-0.0236%
Nc1cc(C(=O)O)c(N)cc1C(=O)O [compound 5180162],-0.24%,-6.3%,-10.7%,-5.6%,-10.8%,-3.2%
CN(C)c1nc2ccc(O)cc2s1 [compound 5195231],0.4%,-66.7%,-110.1%,-166.4%,-68.8%,-41.2%
O=C(Cc1ccccc1)Nc1cc(C(=O)O)c(NC(=O)Cc2ccccc2)cc1C(=O)O [compound 5181020],0.05%,-35.6%,-39.7%,-40.9%,-31.6%,-32.7%
O=C1N=C(c2ccccc2)C(c2ccccc2)N1 (stereo not drawn) [compound 5162292],-2.7%,-4.2%,-24.8%,-7.5%,-13.1%,-23.8%
CC(C)c1nnc(NC(=O)c2cccc([N+](=O)[O-])c2)s1 [compound 5210298],-4.4%,-67.3%,-17.8%,-36.0%,-17.8%,4.3%
Nc1nc(-c2ccc(Cl)c(Cl)c2)cs1 [compound 5690819],0.636%,-3.1%,-7.3%,-0.9%,-10.3%,-4.6%
COc1ccc(NCCNc2ccc(OC)cc2)cc1 [compound 5174308],0.352%,-49.0%,-50.8%,-73.0%,-37.5%,-30.1%
CC1(C)CC(=O)C2=C(C1)Nc1cc(Cl)ccc1S2 [compound 5219661],-1.8%,-52.0%,-32.9%,-91.8%,-22.7%,-20.2%
CC(C)CSC(CC(=O)O)C(=O)O (stereo not drawn) [compound 5152843],-0.119%,-6.2%,-7.8%,-19.0%,-10.7%,-15.7%
COc1ccc(CNc2cccc(N(C)C)c2)cc1 [compound 5452512],0.0119%,-34.0%,-24.5%,-33.7%,-29.7%,-33.8%
Cc1ccc(S(=O)(=O)c2cc(O)ccc2O)cc1C [compound 5210729],-0.6%,-40.9%,-53.2%,-32.6%,-21.9%,-50.4%
CC(=O)N(C)c1ccc(NC(=O)c2ccc(-c3ccccc3)cc2)cc1 [compound 5191683],0.5%,-6.3%,-1.2%,-3.4%,-10.7%,-9.7%
COc1ccc(NCC2CCCCC2)cc1 [compound 5454631],-0.00487%,-40.9%,-25.6%,-52.2%,-20.6%,-14.3%
Cc1ccc(S(=O)(=O)CCC#N)cc1C [compound 5210670],-0.074%,0.4%,-0.354%,-4.6%,-12.4%,-15.9%
Nc1ccc(-c2nc3ccc(N)cc3[nH]2)cc1 [compound 5137121],1.1%,-61.6%,-106.6%,-89.7%,-72.6%,-73.9%
O=C(Nc1ccc(O)cc1)c1ccco1 [compound 5471987],0.0125%,-9.9%,-28.0%,-52.3%,-26.4%,-8.4%
